Publication PMC11864979, “First-in-class ultralong-target-residence-time p38α inhibitors as a mitosis-targeted therapy for colorectal cancer” (Nature Cancer, 2025)
Where “and” joins values, the source holds several entries; their conditions need not be identical. Identical values can stand only once. Like-named read-outs stand apart in the source and are kept apart here.

Assays:
[1] = in vivo pharmacokinetic studies in mice (plasma, LC-MS); set-up: species or system mouse
Method: No mice were excluded during treatment studies. […] GFP imaging of tumors was performed using a Hamamatsu imaging system. For quantification of compounds in the murine plasma, 20 μl of tail-vein blood was diluted with 80 μl of heparin solution, before 200 μl of ice-cold acetonitrile with a defined internal standard was added. The samples were sonicated and centrifuged and the supernatant was subjected to liquid chromatography-mass spectrometry quantification. Full blood analyses were performed with the Sysmex KX-21N hematology analyzer.

PDO1 = test: cell viability in patient-derived CRC organoids PDO1; format: cell-based, human; settings: Fig. 3b, replicates
Method: (§1) For in vitro treatment studies, organoids were mechanically dissociated and digested using TrypLE supplemented with 100 µg ml^−1 DNaseI and 10.5 µM Y-27632 dihydrochloride (Invitrogen) at 37 °C. A total of 1,000–2,000 single cells were plated per well in white 96-well plates (Greiner) in culture medium containing 10% GFR Matrigel or Cultrex BME. The treatment with doxycycline (5 µg ml^−1), pharmacological inhibitors or corresponding volumes of DMSO was started 24 h after plating. Doxycycline was obtained from Sigma-Aldrich. […] Cell viability was measured by means of CellTiter-Glo 3D or CellTiter-Glo 2.0 reagent (Promega) according to the manufacturers’ instructions and the Infinite M Plex reader (Tecan, i-control version 3.9.1 software). Results were normalized to vehicle (DMSO) or to shNC. For cell-doubling assays, the cell number was quantified at the corresponding time points using Guava EasyCyte flow cytometer (Luminex, CytoSoft v5.2 software).

PDO15 = test: cell viability in patient-derived CRC organoids PDO15; format: cell-based, human
Method: as §1

BAP organoids = test: cell viability in BAP organoids; format: cell-based, mouse
Method: (§2) A total of 1,000–2,000 single cells were plated per well in white 96-well plates (Greiner) in culture medium containing 10% GFR Matrigel or Cultrex BME. The treatment with doxycycline (5 µg ml^−1), pharmacological inhibitors or corresponding volumes of DMSO was started 24 h after plating. Doxycycline was obtained from Sigma-Aldrich. […] Results were normalized to vehicle (DMSO) or to shNC. For cell-doubling assays, the cell number was quantified at the corresponding time points using Guava EasyCyte flow cytometer (Luminex, CytoSoft v5.2 software).

PDO3 = test: cell viability in patient-derived CRC organoids PDO3; format: cell-based, human; settings: Fig. 3d, replicates
Method: as §1

KAP liver metastasis = test: survival of wild-type mice with KAP liver metastasis; format: in vivo, mouse
Method: Subcutaneous injection, splenic seeding or cecum injection of organoids was performed in 8–10-week-old C57BL/6 N/Crl, Rag2^−/− (B6.Cg-Rag2^tm1.1Cgn/J), or CB17 Scid beige (CB17.Cg-Prkdc^scidLyst^bg-J/Crl) mice, obtained from Charles River. The organoids were dissociated into single cells, washed with PBS and injected in a 1:1 mixture of PBS and Matrigel. For murine organoids, 1 × 10^5 cells were injected into the left and right flanks or the spleen capsule and 2 × 10^6 cells were injected into the cecum wall. For human organoids, 4 × 10^5 cells were injected into the flanks of CB17 Scid beige mice. For splenic seeding and cecum injection, mice were anaesthetized using ketamine (100 mg kg^−1, intraperitoneally) and xylazin (10 mg/kg, intraperitoneally) in NaCl and a small laparotomy below the thorax was performed.

HT-29 = test: cell viability in human CRC cell line HT-29; format: cell-based; settings: for HT-29 Cell viability (%) / viability at 0.0137 µM / viability at 0.0412 µM / viability at 0.1235 µM / viability at 0.3704 µM / viability at 1.1111 µM / viability at 3.3333 µM / viability at 10 µM: ED Fig. 9h, replicates; for viability at 0.0137 µM: HT-29, 0.0137 µM; for viability at 0.0137 µM / viability at 0.0412 µM / viability at 0.1235 µM / viability at 0.3704 µM / viability at 1.1111 µM / viability at 3.3333 µM / viability at 10 µM: read-out: HT-29 Cell viability (%); for viability at 0.0412 µM: HT-29, 0.0412 µM; for viability at 0.1235 µM: HT-29, 0.1235 µM; for viability at 0.3704 µM: HT-29, 0.3704 µM; for viability at 1.1111 µM: HT-29, 1.1111 µM; for viability at 3.3333 µM: HT-29, 3.3333 µM; for viability at 10 µM: HT-29, 10.0000 µM
Method: To generate KAP^2D cells, KAP organoids were isolated from Matrigel, fragmented by mechanical dissociation and plated without any extracellular matrix on common cell culture dishes. Phoenix-Eco packaging cells (CRL-3214), HCT-15 (CCL-225), HCT 116 (CCL-247), COLO 205 (CCL-222), LS 174T (CL-188), RKO (CRL-2577) and HT-29 (HTB-38) were obtained from the American Type Culture Collection. The cells were cultured at 37 °C and 7% CO2 with RPMI (KAP^2D cells) or DMEM (other cell lines), supplemented with 10% FBS and penicillin–streptomycin. KAP^2D cells were authenticated using PCR (Kras locus and Trp53 locus). Phoenix-Eco packaging cells and HCT-15, HCT 116, COLO 205, LS 174T, RKO and HT-29 cells were authenticated by the provider using short tandem repeat profiling. No commonly misidentified cell lines were used. Mycoplasma contamination was excluded by a PCR-based analysis.
as §1

PDO5 = test: cell viability in patient-derived CRC organoids PDO5; format: cell-based, human; settings: Fig. 3f, replicates
Method: as §1

KMP organoids = test: cell viability in KMP organoids; format: cell-based, mouse
Method: as §2

[2] = mouse, plasma, oral administration in mice, 20 mg kg^−1
[3] = oral administration in mice, 20 mg kg^−1

## CNC(=O)c1ccc2c(c1)C(=O)c1ccc(Nc3ccc(F)c(NC(=O)C4CC4)c3)cc1CC2 [Compound 2015]
[1]; 0 min of treatment, individual animals
  Plasma concentration: 0.00 µM
[1]; 45 min of treatment, individual animals
  Plasma concentration: 20.46 µM and 14.73 µM
[1]; 90 min of treatment, individual animals
  Plasma concentration: 17.75 µM and 16.83 µM
[1]; 180 min of treatment, individual animals
  Plasma concentration: 13.04 µM and 13.78 µM
[1]; 480 min of treatment, individual animals
  Plasma concentration: 2.27 µM and 3.36 µM
[1]; 1440 min of treatment, individual animals
  Plasma concentration: 0.20 µM and 0.04 µM (2×)
[1]; mouse, plasma, oral, 20 mg kg^−1, 0 min of treatment, individual animals
  concentration at 0 min: 0 µM
[1]; mouse, plasma, oral, 20 mg kg^−1, 45 min of treatment, individual animals
  concentration at 45 min: 26.8 µM
[1]; mouse, plasma, oral, 20 mg kg^−1, 90 min of treatment, individual animals
  concentration at 90 min: 25.2 µM
[1]; mouse, plasma, oral, 20 mg kg^−1, 180 min of treatment, individual animals
  concentration at 180 min: 17 µM
[1]; mouse, plasma, oral, 20 mg kg^−1, 480 min of treatment, individual animals
  concentration at 480 min: 4.26 µM
[1]; [2]
  AUC: 121 µM·h
  half-life: 2.68 h
[1]; [3]
  C^max: 20.7 µM
  t^max: 45 min
PDO1; 0.5 µM
  Cell viability (%): 8.84% and 9.77%
PDO1; 1 µM
  Cell viability (%): 9.82% and 5.19%
PDO1; Homo sapiens, 0.5 µM
  viability at 0.5 µM: 10.1%
PDO1; Homo sapiens, 1 µM
  viability at 1 µM: 7.92%
PDO15; Homo sapiens, 96 h, PDO15, 0.5 µM, 4 d, read-out: Cell viability (%)
  viability at 0.5 µM: 77.8%
PDO15; Homo sapiens, 96 h, PDO15, 1 µM, 4 days, read-out: Cell viability (%)
  viability at 1 µM: 42.9%
PDO15; PDO15, 0.5 µM, 4 d, 0.5 µM
  Cell viability (%): 81.70% and 63.83%
PDO15; PDO15, 1 µM, 4 days, 1 µM
  Cell viability (%): 57.05% and 51.26%
BAP organoids; 4 days
  therapeutic effect in BAP organoids (in words): increased responsiveness
BAP organoids; Fig. 2j, 0,5 µM, replicates, 5 µM
  Cell viability (%): 18.53% and 25.34%
BAP organoids; Fig. 2j, 0,25 µM, replicates
  Cell viability (%): 71.10% and 78.07% and 119.22%
BAP organoids; Fig. 2j, 1 µM, replicates
  Cell viability (%): 28.06% and 32.78%
BAP organoids; Mus musculus, Fig. 2j, 0,5 µM, replicates
  viability at 5 µM: 21.1%
BAP organoids; Mus musculus, Fig. 2j, 1 µM, replicates
  viability at 1 µM: 29.7%
PDO3; 0,5 µM, 5 µM
  Cell viability (%): 69.11% and 51.45%
PDO3; 0,25 µM, 25 µM
  Cell viability (%): 56.63% and 78.13% and 87.76%
PDO3; 1 µM
  Cell viability (%): 56.28% and 48.78%
PDO3; Homo sapiens, 72 h, 0,5 µM
  viability at 5 µM: 50.1%
PDO3; Homo sapiens, 72 h, 1 µM
  viability at 1 µM: 53%
KAP liver metastasis; 20 mg kg^−1 daily, start 5 weeks after organoid inoculation
  survival / therapeutic efficacy in KAP liver metastasis (in words): significantly increased the overall survival
KAP liver metastasis; single animals, 1 = event, 0 = censored, Fig. 6e
  Survival: 41 d of treatment and 44 d of treatment and 45 d of treatment and 47 d of treatment and ≥ 50 d of treatment and 34 d of treatment
HT-29; 0.0137 µM, Repetition
  HT-29 Cell viability (%): 96.89% and 103.43%
HT-29; 0.0137 µM, first experiment
  HT-29 Cell viability (%): 95.39% and 93.39%
HT-29; 0.0412 µM, Repetition
  HT-29 Cell viability (%): 87.26% and 92.22%
HT-29; 0.0412 µM, first experiment
  HT-29 Cell viability (%): 90.94% and 92.11%
HT-29; 0.1235 µM, Repetition
  HT-29 Cell viability (%): 78.51% and 65.92%
HT-29; 0.1235 µM, first experiment
  HT-29 Cell viability (%): 82.62% and 81.99%
HT-29; 0.3704 µM, Repetition
  HT-29 Cell viability (%): 32.88% and 34.27%
HT-29; 0.3704 µM, first experiment
  HT-29 Cell viability (%): 11.40% and 11.69%
HT-29; 1.1111 µM, Repetition
  HT-29 Cell viability (%): 7.40% and 7.23%
HT-29; 1.1111 µM, first experiment
  HT-29 Cell viability (%): 7.18% and 7.44%
HT-29; 3.3333 µM, Repetition
  HT-29 Cell viability (%): 7.01% and 6.31%
HT-29; 3.3333 µM, first experiment
  HT-29 Cell viability (%): 10.00% and 9.86%
HT-29; 10.0000 µM, Repetition
  HT-29 Cell viability (%): 6.48% and 6.38%
HT-29; 10.0000 µM, first experiment
  HT-29 Cell viability (%): 9.39% and 10.22%
HT-29; Homo sapiens, 96 h, HT-29, 4 d of treatment
  IC50: 0.178 µM
HT-29; Homo sapiens, Repetition
  viability at 0.0137 µM: 99.5%
  viability at 0.0412 µM: 82.5%
  viability at 0.1235 µM: 73%
  viability at 0.3704 µM: 33.4%
  viability at 1.1111 µM: 7.21%
  viability at 3.3333 µM: 6.86%
  viability at 10 µM: 6.64%
HT-29; Homo sapiens, first experiment
  viability at 0.0137 µM: 93.3%
  viability at 0.0412 µM: 89.4%
  viability at 0.1235 µM: 79.7%
  viability at 0.3704 µM: 12.1%
  viability at 1.1111 µM: 7.57%
  viability at 3.3333 µM: 10.2%
  viability at 10 µM: 9.63%
PDO5; 0,5 µM, 5 µM
  Cell viability (%): 16.61% and 12.02%
PDO5; 0,25 µM, 25 µM
  Cell viability (%): 73.65% and 55.49%
PDO5; 1 µM
  Cell viability (%): 16.85% and 11.03%
PDO5; Homo sapiens, 1 µM
  viability at 1 µM: 12.7%
KMP organoids; 4 days
  therapeutic effect in KMP organoids (in words): increased responsiveness
KMP organoids; Fig. 2i, 0,5 µM, replicates, 5 µM
  Cell viability (%): 17.63% and 7.81% and 29.91%
KMP organoids; Fig. 2i, 0,25 µM, replicates
  Cell viability (%): 27.91% and 21.06%
KMP organoids; Fig. 2i, 1 µM, replicates
  Cell viability (%): 17.15% and 26.00%
KMP organoids; Mus musculus, Fig. 2i, 1 µM, replicates
  viability at 1 µM: 27.8%
